Test results from patent US9937151B2, “Carbapenem antibacterials with gram-negative activity” (priority 2010, dated 2018).
≈ marks a conversion by molar mass, not a printed value.

Test system: G(−) bacterial strains
Test: Dilution antimicrobial susceptibility tests (MIC, NCCLS agar dilution / broth dilution)
Type: cell-based, Gram-negative organisms
Conditions: unit assumed
Procedure: The MIC (minimum inhibitory concentration) was determined by the NCCLS (National Committee for Clinical Laboratory Standards) methods 2000. Methods for dilution antimicrobial susceptibility testing for bacteria that growth aerobically (M7-A5, vol. 20, No. 2). The agar dilution method for determining antimicrobial susceptibility was carried out using Mueller-Hinton agar. A final inoculum of 10^4 CFU/spot was applied with an inoculation device. Broth dilution tests were performed with 5×10^5 CFU/well in 96 well plates. The susceptibilities of streptococci were determined by Mueller-Hinton agar supplemented with 5% sheep blood. All assays were run with the indicated control strains, available from the ATCC (American Type Culture Collection, Rockville, Md.).
Abbreviations used in Table 1 are defined as follows: Cf-R: Ceftazidime Resistance, Ci-R: Ciprofloxacin Resistance, Gen-R: Gentamycin Resistance, Imp-R: Imipenem Resistance, Mp-R: Meropenem Resistance, Ofx-R: Ofloxacin Resistance, B+: β-lactamase Production, AmpC: AmpC-lactamase Hyper production, CBPase: Carbapenemase Production.

[1] = strain #1 Acinetobacter calcoaceticus
[2] = strain #2 Acinetobacter baumannii, Cf-R, Ci-R
[3] = strain #3 Acinetobacter baumannii, Cf-R, Ci-R, Mp-I
[4] = strain #4 Acinetobacter baumannii, Cf-R, Imp-I, CBPase
[5] = strain #7 Enterobacter aerogenes
[6] = strain #8 Enterobacter cloacae, Cf-R, B+
[7] = strain #9 Enterobacter cloacae, Cf-R
[8] = strain #10 Escherichia coli, Ci-R
[9] = strain #11 Escherichia coli, Ci-R, AmpC
[10] = strain #15 Klebsiella pneumoniae
[11] = strain #16 Moraxella catarrhalis
[12] = strain #21 Providencia rettgeri
[13] = strain #22 Salmonella typhimurium
[14] = strain #25 Shigella dysenteriae
[15] = strain #28 Stenotrophomonas maltophilia

Row | Structure (SMILES) | MIC [1] [µg/mL] | MIC [2] [µg/mL] | MIC [3] [µg/mL] | MIC [4] [µg/mL] | MIC (strain #5 Citrobacter diversus) [µg/mL] | MIC (strain #6 Citrobacter freundii) [µg/mL] | MIC [5] [µg/mL] | MIC [6] [µg/mL] | MIC [7] [µg/mL] | MIC [8] [µg/mL] | MIC [9] [µg/mL] | MIC (strain #12 Escherichia coli) [µg/mL] | MIC (strain #13 Escherichia coli) [µg/mL] | MIC (strain #14 Klebsiella oxytoca) [µg/mL] | MIC [10] [µg/mL] | MIC [11] [µg/mL] | MIC (strain #17 Morganella Morganii) [µg/mL] | MIC (strain #18 Morganella Morganii) [µg/mL] | MIC (strain #19 Proteus vulgaris) [µg/mL] | MIC (strain #20 Proteus mirabilis) [µg/mL] | also measured
1 | C[C@@H](O)C1C(=O)N2C(C(=O)O)=C(CN3CCC(NC(=O)CNC(=N)N)C3)[C@H](C)C12 (stereo partly shown) [Compound 167] | 32 (≈ 78.3 µM) | > 32 | > 32 | > 32 | 1 (≈ 2.45 µM) | 2 (≈ 4.9 µM) | 4 (≈ 9.79 µM) | 2 (≈ 4.9 µM) | 2 (≈ 4.9 µM) | 1 (≈ 2.45 µM) | 1 (≈ 2.45 µM) | 1 (≈ 2.45 µM) | 1 (≈ 2.45 µM) | 2 (≈ 4.9 µM) | 2 (≈ 4.9 µM) | 2 (≈ 4.9 µM) | 8 (≈ 19.6 µM) | 8 (≈ 19.6 µM) | 4 (≈ 9.79 µM) | 2 (≈ 4.9 µM) | MIC [12]: 2 µg/mL (≈ 4.9 µM); MIC [13]: 2 µg/mL (≈ 4.9 µM); MIC (strain #23 Serratia marcescens): 2 µg/mL (≈ 4.9 µM); MIC (strain #24 Serratia marcescens): 4 µg/mL (≈ 9.79 µM); MIC [14]: 1 µg/mL (≈ 2.45 µM); MIC (strain #26 Shigella sonnei): 1 µg/mL (≈ 2.45 µM); MIC (strain #27 Shigella flexneri): 1 µg/mL (≈ 2.45 µM); MIC [15]: 16 µg/mL (≈ 39.2 µM)
2 | C[C@@H](O)C1C(=O)N2C(C(=O)O)=C(CN3CC(N)C3)[C@H](C)C12 (stereo partly shown) [Compound 93] | 1 (≈ 3.39 µM) | 2 (≈ 6.77 µM) | 8 (≈ 27.1 µM) | 2 (≈ 6.77 µM) | 0.25 (≈ 0.846 µM) | 0.5 (≈ 1.69 µM) | 2 (≈ 6.77 µM) | 0.25 (≈ 0.846 µM) | 0.5 (≈ 1.69 µM) | 0.25 (≈ 0.846 µM) | 0.25 (≈ 0.846 µM) | 0.25 (≈ 0.846 µM) | 0.5 (≈ 1.69 µM) | 0.5 (≈ 1.69 µM) | 0.5 (≈ 1.69 µM) | 0.031 (≈ 0.105 µM) | 8 (≈ 27.1 µM) | 4 (≈ 13.5 µM) | 2 (≈ 6.77 µM) | 0.5 (≈ 1.69 µM) | MIC [12]: 2 µg/mL (≈ 6.77 µM); MIC [13]: 0.5 µg/mL (≈ 1.69 µM); MIC (strain #23 Serratia marcescens): 1 µg/mL (≈ 3.39 µM); MIC (strain #24 Serratia marcescens): 1 µg/mL (≈ 3.39 µM); MIC [14]: 0.5 µg/mL (≈ 1.69 µM); MIC (strain #26 Shigella sonnei): 0.5 µg/mL (≈ 1.69 µM); MIC (strain #27 Shigella flexneri): 0.25 µg/mL (≈ 0.846 µM); MIC [15]: 0.5 µg/mL (≈ 1.69 µM); MIC (strain #29 Pseudomonas aeruginosa): 4 µg/mL (≈ 13.5 µM); MIC (strain #30 Pseudomonas aeruginosa): 4 µg/mL (≈ 13.5 µM); MIC (strain #31 Pseudomonas aeruginosa, Ofx-R): 4 µg/mL (≈ 13.5 µM); MIC (strain #32 Pseudomonas aeruginosa, Cf-R): 4 µg/mL (≈ 13.5 µM); MIC (strain #33 Pseudomonas aeruginosa, Ci-R): 8 µg/mL (≈ 27.1 µM); MIC (strain #34 Pseudomonas aeruginosa, Gen-R): 8 µg/mL (≈ 27.1 µM); MIC (strain #35 Pseudomonas aeruginosa, Ip-R): 16 µg/mL (≈ 54.2 µM); MIC (strain #36 Pseudomonas aeruginosa, Cf-R, Ci-R, Mp-R): 16 µg/mL (≈ 54.2 µM)
